Experimental data taken from the supplement of paper PMC10883282.
± gives the standard deviation of the averaged measurements.

Tested on: KHOS-NP
Assay: relative viability vs DMSO control (72 h) (fraction); higher = more viable cells
Summary of the method: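 Sarcoma cell lines were plated in 384 wells to reach 80–90% confluence, treated after 24 h with 2.5 µl of serially diluted compound and held 72 h at 37 °C, 5% CO2. Relative viability was taken as percent growth from ATPLite readings, averaged over up to triplicate wells. The values were rescaled so that 1 marks full and 0 marks none.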

| SMILES | relative viability (0.00017 µM) | relative viability (0.00051 µM) | relative viability (0.00152 µM) | relative viability (0.00457 µM) | relative viability (0.01372 µM) | relative viability (0.04115 µM) | relative viability (0.1235 µM) | relative viability (0.3704 µM) | relative viability (1.111 µM) | relative viability (3.333 µM) | relative viability (10 µM) | relative viability (2 pM) | relative viability (5 pM) | relative viability (15 pM) | relative viability (50 pM) | relative viability (0.00014 µM) | relative viability (0.00041 µM) | relative viability (0.0012 µM) | relative viability (0.0037 µM) | relative viability (0.011 µM) | relative viability (200 fM) | relative viability (600 fM) |
| --- | --- | --- | --- | --- | --- | --- | --- | --- | --- | --- | --- | --- | --- | --- | --- | --- | --- | --- | --- | --- | --- | --- |
| CC(C)NC(=O)C1CCC(n2c(NC(=O)c3ccc(F)cc3)nc3ccc(CN4CCC(C(C)(C)O)CC4)cc32)CC1 (stereo not drawn) [Belizatinib] | 1.09 ± 0.025 | 1.095 ± 0.005 | 1.109 ± 0.0095 | 1.1 ± 0.02 | 1.104 ± 0.011 | 1.1 ± 0.021 | 1.1 ± 0.016 | 1.09 ± 0.028 | 1.09 ± 0.033 | 0.996 ± 0.059 | 0.654 ± 0.033 |  |  |  |  |  |  |  |  |  |  |  |
| C=CC(=O)N1CCC[C@@H](n2nc(-c3ccc(Oc4ccccc4)cc3)c3c(N)ncnc32)C1 [Ibrutinib] | 1.08 ± 0.025 | 1.086 ± 0.0071 | 1.08 ± 0.025 | 1.07 ± 0.013 | 1.05 ± 0.032 | 1.04 ± 0.014 | 1.05 ± 0.015 | 1.01 ± 0.045 | 1.034 ± 0.01 | 1.03 ± 0.043 | 0.995 ± 0.043 |  |  |  |  |  |  |  |  |  |  |  |
| O=C(Cc1ccc(-c2ccc(OCCN3CCOCC3)cc2)cn1)NCc1ccccc1 [KX2-391] | 1.106 ± 0.0028 | 1.11 ± 0.033 | 1.11 ± 0.031 | 1.11 ± 0.036 | 1.09 ± 0.03 | 1.039 ± 0.01 | 0.586 ± 0.013 | 0.456 ± 0.026 | 0.378 ± 0.0089 | 0.376 ± 0.0087 | 0.364 ± 0.028 |  |  |  |  |  |  |  |  |  |  |  |
| CC(=O)Nc1cccc(-n2c(=O)n(C3CC3)c(=O)c3c(Nc4ccc(I)cc4F)n(C)c(=O)c(C)c32)c1 [Trametinib] | 1.08 ± 0.012 | 1.09 ± 0.014 | 1.05 ± 0.019 | 0.975 ± 0.048 | 0.532 ± 0.055 | 0.312 ± 0.013 | 0.278 ± 0.0054 | 0.275 ± 0.011 | 0.256 ± 0.0076 | 0.25 ± 0.014 | 0.231 ± 0.02 |  |  |  |  |  |  |  |  |  |  |  |
| COc1cc2nccc(Oc3ccc(NC(=O)Nc4cc(C)on4)c(Cl)c3)c2cc1OC [Tivozanib] | 1.08 ± 0.013 | 1.06 ± 0.016 | 1.06 ± 0.027 | 1.08 ± 0.021 | 1.074 ± 0.005 | 1.06 ± 0.034 | 1.09 ± 0.018 | 1.05 ± 0.031 | 1.06 ± 0.023 | 1.03 ± 0.027 | 0.719 ± 0.015 |  |  |  |  |  |  |  |  |  |  |  |
| COc1cc2c(cc1O)CCN[C@]21CS[C@@H]2c3c(OC(C)=O)c(C)c4c(c3[C@H](COC1=O)N1[C@@H]2[C@H]2c3c(cc(C)c(OC)c3O)C[C@@H]([C@@H]1O)N2C)OCO4 [Trabectedin] |  |  |  |  |  |  |  |  |  |  |  | 1.11 ± 0.026 | 1.11 ± 0.03 | 1.11 ± 0.028 | 1.09 ± 0.018 | 1.04 ± 0.029 | 0.0507 ± 0.011 | 0.0847 ± 0.0079 | 0.102 ± 0.0031 | 0.0529 ± 0.0034 | 1.1 ± 0.03 | 1.12 ± 0.022 |
| CNC(=O)c1cc(Oc2ccc(NC(=O)Nc3ccc(Cl)c(C(F)(F)F)c3)c(F)c2)ccn1 [Regorafenib] | 1.09 ± 0.013 | 1.11 ± 0.012 | 1.12 ± 0.019 | 1.12 ± 0.013 | 1.112 ± 0.0027 | 1.1 ± 0.016 | 0.787 ± 0.57 | 1.07 ± 0.018 | 0.938 ± 0.055 | 0.569 ± 0.014 | 0.238 ± 0.083 |  |  |  |  |  |  |  |  |  |  |  |
| C[C@@H]1CCN(C(=O)CC#N)C[C@@H]1N(C)c1ncnc2[nH]ccc12 [Tofacitinib] | 1.08 ± 0.037 | 1.092 ± 0.01 | 1.08 ± 0.031 | 1.09 ± 0.036 | 1.05 ± 0.034 | 1.07 ± 0.053 | 1.06 ± 0.049 | 1.05 ± 0.029 | 1.03 ± 0.011 | 1.02 ± 0.051 | 0.941 ± 0.015 |  |  |  |  |  |  |  |  |  |  |  |
| COc1cc2c(Oc3ccc4[nH]c(C)cc4c3F)ncnc2cc1OCCCN1CCCC1 [Cediranib] | 1.08 ± 0.025 | 1.11 ± 0.02 | 1.09 ± 0.013 | 1.08 ± 0.015 | 1.09 ± 0.018 | 1.09 ± 0.014 | 1.04 ± 0.027 | 1.07 ± 0.029 | 1.036 ± 0.0041 | 1.05 ± 0.016 | 1.03 ± 0.023 |  |  |  |  |  |  |  |  |  |  |  |
| CC[C@H](Nc1ncnc2[nH]cnc12)c1nc2cccc(F)c2c(=O)n1-c1ccccc1 [Idelalisib] | 1.117 ± 0.0096 | 1.12 ± 0.017 | 1.12 ± 0.022 | 1.105 ± 0.01 | 1.11 ± 0.041 | 1.11 ± 0.025 | 1.1 ± 0.046 | 1.1 ± 0.024 | 1.085 ± 0.0061 | 1.06 ± 0.043 | 1.04 ± 0.019 |  |  |  |  |  |  |  |  |  |  |  |
| Cc1cc(Nc2ncnc3ccc(NC4=NC(C)(C)CO4)cc23)ccc1Oc1ccn2ncnc2c1 [Tucatinib] | 1.09 ± 0.023 | 1.14 ± 0.021 | 1.13 ± 0.014 | 1.11 ± 0.029 | 1.09 ± 0.018 | 1.09 ± 0.025 | 1.12 ± 0.017 | 1.1 ± 0.017 | 1.12 ± 0.016 | 1.09 ± 0.02 | 1.11 ± 0.014 |  |  |  |  |  |  |  |  |  |  |  |
| Cn1cc(-c2cc3c(N4CCN(c5ncc([C@@](C)(N)c6ccc(F)cc6)cn5)CC4)ncnn3c2)cn1 [Avapritinib] | 1.021 ± 0.0094 | 1.05 ± 0.031 | 1.02 ± 0.027 | 1.04 ± 0.029 | 1.03 ± 0.017 | 1.03 ± 0.015 | 1 ± 0.022 | 0.948 ± 0.041 | 0.861 ± 0.024 | 0.685 ± 0.033 | 0.586 ± 0.048 |  |  |  |  |  |  |  |  |  |  |  |
| CC(C)(C)c1cc(NC(=O)Nc2ccc(-c3cn4c(n3)sc3cc(OCCN5CCOCC5)ccc34)cc2)no1 [Quizartinib] | 1.13 ± 0.012 | 1.1 ± 0.027 | 1.1 ± 0.019 | 1.08 ± 0.035 | 1.096 ± 0.0028 | 1.09 ± 0.013 | 1.069 ± 0.0099 | 1.07 ± 0.034 | 1.05 ± 0.025 | 0.998 ± 0.067 | 0.99 ± 0.032 |  |  |  |  |  |  |  |  |  |  |  |
| O=C(Nc1cnn2ccc(N3CCC[C@@H]3c3cc(F)ccc3F)nc12)N1CC[C@H](O)C1 [Larotrectinib] | 1.1 ± 0.025 | 1.09 ± 0.013 | 1.08 ± 0.016 | 1.09 ± 0.024 | 1.1 ± 0.016 | 1.06 ± 0.03 | 1.05 ± 0.053 | 1.08 ± 0.021 | 1.05 ± 0.027 | 1.02 ± 0.014 | 1.01 ± 0.038 |  |  |  |  |  |  |  |  |  |  |  |
| Cc1nc(-c2cn3c(n2)-c2ccc(-c4cnn(C(C)(C)C(N)=O)c4)cc2OCC3)n(C(C)C)n1 [Taselisib] | 1.04 ± 0.023 | 1.039 ± 0.003 | 1.03 ± 0.03 | 1.02 ± 0.018 | 1.042 ± 0.0077 | 1.01 ± 0.023 | 1.02 ± 0.02 | 1.03 ± 0.022 | 0.99 ± 0.035 | 0.948 ± 0.011 | 0.688 ± 0.0095 |  |  |  |  |  |  |  |  |  |  |  |
| Cc1nc(NC(=O)N2CCC[C@H]2C(N)=O)sc1-c1ccnc(C(C)(C)C(F)(F)F)c1 [Alpelisib] | 1.07 ± 0.031 | 1.073 ± 0.0087 | 1.06 ± 0.024 | 1.05 ± 0.021 | 1.03 ± 0.028 | 1.02 ± 0.018 | 1.02 ± 0.067 | 1.04 ± 0.014 | 0.992 ± 0.053 | 0.9227 ± 0.0047 | 0.828 ± 0.049 |  |  |  |  |  |  |  |  |  |  |  |
| Cn1cnc2c(F)c(Nc3ccc(Br)cc3F)c(C(=O)NOCCO)cc21 [Binimetinib] | 1.06 ± 0.034 | 1.09 ± 0.015 | 1.081 ± 0.004 | 1.097 ± 0.0049 | 1.06 ± 0.045 | 0.943 ± 0.075 | 0.857 ± 0.012 | 0.802 ± 0.066 | 0.425 ± 0.015 | 0.291 ± 0.016 | 0.276 ± 0.012 |  |  |  |  |  |  |  |  |  |  |  |
| CCc1cc2c(cc1N1CCC(N3CCOCC3)CC1)C(C)(C)c1[nH]c3cc(C#N)ccc3c1C2=O [Alectinib] | 1.07 ± 0.032 | 1.09 ± 0.031 | 1.082 ± 0.0076 | 1.08 ± 0.011 | 1.08 ± 0.013 | 1.089 ± 0.0044 | 1.09 ± 0.021 | 1.074 ± 0.0034 | 1.06 ± 0.026 | 1.05 ± 0.01 | 1.04 ± 0.044 |  |  |  |  |  |  |  |  |  |  |  |
